{
  "source": "PubChem BioAssay AID1259407",
  "about": "(Chemical Carcinogenesis Research Information System (CCRIS), 2018)",
  "system": "CCRIS mutagenicity, Ames/micronucleus/aberration tests",
  "assay": "CCRIS mutagenicity studies",
  "key": {"[1]": {"conditions": "Test System: AMES SALMONELLA TYPHIMURIUM, Strain/Indicator: TA97, Metabolic Activation: NONE, Method: PREINCUBATION"}, "[2]": {"conditions": "Test System: AMES SALMONELLA TYPHIMURIUM, Strain/Indicator: TA98, Metabolic Activation: NONE, Method: PREINCUBATION"}, "[3]": {"conditions": "Test System: AMES SALMONELLA TYPHIMURIUM, Strain/Indicator: TA98, Metabolic Activation: NONE, Method: STANDARD PLATE"}, "[4]": {"conditions": "Test System: AMES SALMONELLA TYPHIMURIUM, Strain/Indicator: TA100, Metabolic Activation: NONE, Method: PREINCUBATION"}, "[5]": {"conditions": "Test System: AMES SALMONELLA TYPHIMURIUM, Strain/Indicator: TA100, Metabolic Activation: NONE, Method: STANDARD PLATE"}, "[6]": {"conditions": "Test System: AMES SALMONELLA TYPHIMURIUM, Strain/Indicator: TA1535, Metabolic Activation: NONE, Method: STANDARD PLATE"}, "[7]": {"conditions": "Test System: AMES SALMONELLA TYPHIMURIUM, Strain/Indicator: TA1537, Metabolic Activation: NONE, Method: STANDARD PLATE"}, "[8]": {"conditions": "Test System: AMES SALMONELLA TYPHIMURIUM, Strain/Indicator: TA98, Metabolic Activation: RAT, LIVER, S-9, Method: STANDARD PLATE"}, "[9]": {"conditions": "Test System: AMES SALMONELLA TYPHIMURIUM, Strain/Indicator: TA100, Metabolic Activation: RAT, LIVER, S-9, Method: STANDARD PLATE"}},
  "note": "Activity calls are given as the source filed them. No rule for the calls is given here.",
  "data": [
    {"smiles": "CN(C)CCO", "values": [
      {"measurement": "mutagenic call", "setting": "Test System: AMES SALMONELLA TYPHIMURIUM, Strain/Indicator: TA97, Metabolic Activation: HAMSTER, LIVER, AROCLOR 1254 (10 OR 30%), Method: PREINCUBATION", "value": "inactive; negative"},
      {"measurement": "mutagenic call", "setting": "[1]", "value": "inactive; negative"},
      {"measurement": "mutagenic call", "setting": "Test System: AMES SALMONELLA TYPHIMURIUM, Strain/Indicator: TA97, Metabolic Activation: RAT, LIVER, S-9, AROCLOR 1254 (10 OR 30%), Method: PREINCUBATION", "value": "inactive; negative"},
      {"measurement": "mutagenic call", "setting": "Test System: AMES SALMONELLA TYPHIMURIUM, Strain/Indicator: TA98, Metabolic Activation: HAMSTER, LIVER, S-9, AROCLOR 1254 (10%), Method: PREINCUBATION", "value": "inactive; negative"},
      {"measurement": "mutagenic call", "setting": "Test System: AMES SALMONELLA TYPHIMURIUM, Strain/Indicator: TA98, Metabolic Activation: HAMSTER, LIVER, S-9, AROCLOR 1254 (30%), Method: PREINCUBATION", "value": "inactive; negative"},
      {"measurement": "mutagenic call", "setting": "[2]", "value": "inactive; negative"},
      {"measurement": "mutagenic call", "setting": "[3]", "value": "inactive; negative"},
      {"measurement": "mutagenic call", "setting": "Test System: AMES SALMONELLA TYPHIMURIUM, Strain/Indicator: TA98, Metabolic Activation: RAT, LIVER, S-9, AROCLOR 1254 (10%), Method: PREINCUBATION", "value": "inactive; negative"},
      {"measurement": "mutagenic call", "setting": "Test System: AMES SALMONELLA TYPHIMURIUM, Strain/Indicator: TA98, Metabolic Activation: RAT, LIVER, S-9, AROCLOR 1254 (30%), Method: PREINCUBATION", "value": "inactive; negative"},
      {"measurement": "mutagenic call", "setting": "Test System: AMES SALMONELLA TYPHIMURIUM, Strain/Indicator: TA98, Metabolic Activation: RAT, LIVER, S-9, AROCLOR 1254, Method: STANDARD PLATE", "value": "inactive; negative"},
      {"measurement": "mutagenic call", "setting": "Test System: AMES SALMONELLA TYPHIMURIUM, Strain/Indicator: TA100, Metabolic Activation: HAMSTER, LIVER, S-9, AROCLOR 1254 (10%), Method: PREINCUBATION", "value": "inactive; negative"},
      {"measurement": "mutagenic call", "setting": "Test System: AMES SALMONELLA TYPHIMURIUM, Strain/Indicator: TA100, Metabolic Activation: HAMSTER, LIVER, S-9, AROCLOR 1254 (30%), Method: PREINCUBATION", "value": "inactive; negative"},
      {"measurement": "mutagenic call", "setting": "[4]", "value": "inactive; negative"},
      {"measurement": "mutagenic call", "setting": "[5]", "value": "inactive; negative"},
      {"measurement": "mutagenic call", "setting": "Test System: AMES SALMONELLA TYPHIMURIUM, Strain/Indicator: TA100, Metabolic Activation: RAT, LIVER, S-9, AROCLOR 1254 (10%), Method: PREINCUBATION", "value": "inactive; negative"},
      {"measurement": "mutagenic call", "setting": "Test System: AMES SALMONELLA TYPHIMURIUM, Strain/Indicator: TA100, Metabolic Activation: RAT, LIVER, S-9, AROCLOR 1254 (30%), Method: PREINCUBATION", "value": "inactive; negative"},
      {"measurement": "mutagenic call", "setting": "Test System: AMES SALMONELLA TYPHIMURIUM, Strain/Indicator: TA100, Metabolic Activation: RAT, LIVER, S-9, AROCLOR 1254, Method: STANDARD PLATE", "value": "inactive; negative"},
      {"measurement": "mutagenic call", "setting": "Test System: AMES SALMONELLA TYPHIMURIUM, Strain/Indicator: TA1535, Metabolic Activation: HAMSTER, LIVER, S-9, AROCLOR 1254 (10%), Method: PREINCUBATION", "value": "inactive; negative"},
      {"measurement": "mutagenic call", "setting": "Test System: AMES SALMONELLA TYPHIMURIUM, Strain/Indicator: TA1535, Metabolic Activation: HAMSTER, LIVER, S-9, AROCLOR 1254 (30%), Method: PREINCUBATION", "value": "inactive; negative"},
      {"measurement": "mutagenic call", "setting": "Test System: AMES SALMONELLA TYPHIMURIUM, Strain/Indicator: TA1535, Metabolic Activation: NONE, Method: PREINCUBATION", "value": "inactive; negative"},
      {"measurement": "mutagenic call", "setting": "[6]", "value": "inactive; negative"},
      {"measurement": "mutagenic call", "setting": "Test System: AMES SALMONELLA TYPHIMURIUM, Strain/Indicator: TA1535, Metabolic Activation: RAT, LIVER, S-9, AROCLOR 1254 (10%), Method: PREINCUBATION", "value": "inactive; negative"},
      {"measurement": "mutagenic call", "setting": "Test System: AMES SALMONELLA TYPHIMURIUM, Strain/Indicator: TA1535, Metabolic Activation: RAT, LIVER, S-9, AROCLOR 1254 (30%), Method: PREINCUBATION", "value": "inactive; negative"},
      {"measurement": "mutagenic call", "setting": "Test System: AMES SALMONELLA TYPHIMURIUM, Strain/Indicator: TA1535, Metabolic Activation: RAT, LIVER, S-9, AROCLOR 1254, Method: STANDARD PLATE", "value": "inactive; negative"},
      {"measurement": "mutagenic call", "setting": "Test System: AMES SALMONELLA TYPHIMURIUM, Strain/Indicator: TA1537, Metabolic Activation: HAMSTER, LIVER, S-9, AROCLOR 1254 (10%), Method: PREINCUBATION", "value": "inactive; negative"},
      {"measurement": "mutagenic call", "setting": "Test System: AMES SALMONELLA TYPHIMURIUM, Strain/Indicator: TA1537, Metabolic Activation: HAMSTER, LIVER, S-9, AROCLOR 1254 (30%), Method: PREINCUBATION", "value": "inactive; negative"},
      {"measurement": "mutagenic call", "setting": "Test System: AMES SALMONELLA TYPHIMURIUM, Strain/Indicator: TA1537, Metabolic Activation: NONE, Method: PREINCUBATION", "value": "inactive; negative"},
      {"measurement": "mutagenic call", "setting": "[7]", "value": "inactive; negative"},
      {"measurement": "mutagenic call", "setting": "Test System: AMES SALMONELLA TYPHIMURIUM, Strain/Indicator: TA1537, Metabolic Activation: RAT, LIVER, S-9, AROCLOR 1254 (10%), Method: PREINCUBATION", "value": "inactive; negative"},
      {"measurement": "mutagenic call", "setting": "Test System: AMES SALMONELLA TYPHIMURIUM, Strain/Indicator: TA1537, Metabolic Activation: RAT, LIVER, S-9, AROCLOR 1254 (30%), Method: PREINCUBATION", "value": "inactive; negative"},
      {"measurement": "mutagenic call", "setting": "Test System: AMES SALMONELLA TYPHIMURIUM, Strain/Indicator: TA1537, Metabolic Activation: RAT, LIVER, S-9, AROCLOR 1254, Method: STANDARD PLATE", "value": "inactive; negative"},
      {"measurement": "mutagenic call", "setting": "Test System: AMES SALMONELLA TYPHIMURIUM, Strain/Indicator: TA1538, Metabolic Activation: NONE, Method: STANDARD PLATE", "value": "inactive; negative"},
      {"measurement": "mutagenic call", "setting": "Test System: AMES SALMONELLA TYPHIMURIUM, Strain/Indicator: TA1538, Metabolic Activation: RAT, LIVER, S-9, AROCLOR 1254, Method: STANDARD PLATE", "value": "inactive; negative"},
      {"measurement": "mutagenic call", "setting": "Test System: CHINESE HAMSTER OVARY, Strain/Indicator: CHO-K1-BH4, Metabolic Activation: NONE", "value": "inactive; negative"},
      {"measurement": "mutagenic call", "setting": "Test System: CHINESE HAMSTER OVARY, Strain/Indicator: CHO-K1-BH4, Metabolic Activation: RAT, LIVER, S-9, AROCLOR 1254", "value": "inactive; negative"}
    ]},
    {"smiles": "Oc1ccc2ccc3c4ccc5ccccc5c4c4c(c3c2c1O)O4", "values": [
      {"measurement": "mutagenic call", "setting": "[1]", "value": "active; positive"},
      {"measurement": "mutagenic call", "setting": "[2]", "value": "active; positive"},
      {"measurement": "mutagenic call", "setting": "[4]", "value": "active; positive"},
      {"measurement": "mutagenic call", "setting": "Test System: AMES SALMONELLA TYPHIMURIUM, Strain/Indicator: TA104, Metabolic Activation: NONE, Method: PREINCUBATION", "value": "active; positive"},
      {"measurement": "mutagenic call", "setting": "Test System: CHINESE HAMSTER V-79, Strain/Indicator: V-79/6-THIOGUANINE, Metabolic Activation: NONE", "value": "active; positive"}
    ]},
    {"smiles": "OCc1ccc(F)cc1", "values": [
      {"measurement": "mutagenic call", "setting": "[5]", "value": "inactive; negative"}
    ]},
    {"smiles": "Nc1cccc2c(Cl)nsc12", "values": [
      {"measurement": "mutagenic call", "setting": "Test System: AMES SALMONELLA TYPHIMURIUM, Strain/Indicator: TA100, Metabolic Activation: S-9, Method: STANDARD PLATE", "value": "active; positive"}
    ]},
    {"smiles": "OC[C@@H](O)[C@@H](O)CO", "values": [
      {"measurement": "mutagenic call", "setting": "[3]", "value": "inactive; negative"},
      {"measurement": "mutagenic call", "setting": "[8]", "value": "inactive; negative"},
      {"measurement": "mutagenic call", "setting": "[5]", "value": "inactive; negative"},
      {"measurement": "mutagenic call", "setting": "[9]", "value": "inactive; negative"},
      {"measurement": "mutagenic call", "setting": "[6]", "value": "inactive; negative"},
      {"measurement": "mutagenic call", "setting": "Test System: AMES SALMONELLA TYPHIMURIUM, Strain/Indicator: TA1535, Metabolic Activation: RAT, LIVER, S-9, Method: STANDARD PLATE", "value": "inactive; negative"},
      {"measurement": "mutagenic call", "setting": "[7]", "value": "inactive; negative"},
      {"measurement": "mutagenic call", "setting": "Test System: AMES SALMONELLA TYPHIMURIUM, Strain/Indicator: TA1537, Metabolic Activation: RAT, LIVER, S-9, Method: STANDARD PLATE", "value": "inactive; negative"},
      {"measurement": "mutagenic call", "setting": "Test System: E. COLI, Strain/Indicator: WP2 UVRA, Metabolic Activation: NONE, Method: STANDARD PLATE", "value": "inactive; negative"},
      {"measurement": "mutagenic call", "setting": "Test System: E. COLI, Strain/Indicator: WP2 UVRA, Metabolic Activation: RAT, LIVER, S-9, Method: STANDARD PLATE", "value": "inactive; negative"}
    ]},
    {"smiles": "CC(=O)NO", "values": [
      {"measurement": "mutagenic call", "setting": "[3]", "value": "active; positive"},
      {"measurement": "mutagenic call", "setting": "[8]", "value": "active; positive"},
      {"measurement": "mutagenic call", "setting": "[9]", "value": "inactive; negative"}
    ]}
  ]
}
